Laboratory results as given in patent US12589087B2, “Enantiomer selective action on neurotransmission” (The Board of Trustees of the Leland Stanford Junior …, priority 2021, dated 2026).

Columns and labels:
human glutaminase GLS1 = target: T1, human glutaminase GLS1 (Homo sapiens, UniProt O94925); experiment: Catalysis of 2MeGln hydrolysis by GLS1 glutaminase; type: biochemical; conditions: 10 mM substrate
T1 construct: purchased Sigma SRP0516
T1 sequence (O94925 55-669): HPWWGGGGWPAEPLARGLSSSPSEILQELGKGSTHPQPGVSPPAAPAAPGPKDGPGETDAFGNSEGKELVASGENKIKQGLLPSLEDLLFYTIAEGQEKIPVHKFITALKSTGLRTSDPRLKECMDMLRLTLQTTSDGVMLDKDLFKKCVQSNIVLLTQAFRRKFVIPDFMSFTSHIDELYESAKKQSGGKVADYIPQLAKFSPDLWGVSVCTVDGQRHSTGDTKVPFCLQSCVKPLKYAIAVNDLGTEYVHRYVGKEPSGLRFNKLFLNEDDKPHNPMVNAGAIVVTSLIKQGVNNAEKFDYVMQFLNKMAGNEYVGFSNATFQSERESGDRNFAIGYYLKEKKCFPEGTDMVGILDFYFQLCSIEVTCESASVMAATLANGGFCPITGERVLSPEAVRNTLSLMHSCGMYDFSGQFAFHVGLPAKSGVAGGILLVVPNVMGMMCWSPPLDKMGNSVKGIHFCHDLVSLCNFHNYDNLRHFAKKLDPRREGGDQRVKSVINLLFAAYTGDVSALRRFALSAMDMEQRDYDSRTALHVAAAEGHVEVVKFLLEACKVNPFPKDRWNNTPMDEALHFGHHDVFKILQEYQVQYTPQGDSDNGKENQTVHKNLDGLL
Protocol: The procedure was adapted from an existing protocol. To a reaction mixture in a 1.5 mL microcentrifuge tube containing 10 mM rac-2MeGln or L-Gln-^13C2 in 100 mM phosphate pH 7.4 buffer made in 20% atom ^18O water, recombinant GLS1 (final concentration: 5 ng/mL) was added. The tubes were incubated in a preheated thermomixer at 37° C. and periodically shaken at 600 rpm (30 s on, 30 s off). 5 μL aliquots were collected in triplicate every 5 min and immediately diluted with 195 μL of cold 60% ACN containing 10 μM Glu-d5 and Gln-d5 as internal standards in a 96 well plate. After collecting all samples, the plate was shaken at 1000 rpm for 5 min at room temperature, and then stored at −80° C. Before analysis the plate was thawed and 10 μL aliquots of the extracted reaction mixtures were diluted with 190 μL of 90% acetonitrile.
The quantification of the newly formed 2MeGlu in the presence of the preexisting trace amounts was performed in the following way. Peak area ratio of Glu-^13C2 to Glu-^13C2^18O was calculated in all samples containing Glu-^13C2. The mean ratio value was then applied to calculate the hypothetical peak area of the newly formed 2MeGlu based on the directly measured 2MeGlu-^18O peak area. The ratio of the newly formed 2MeGlu peak area and the total 2MeGlu peak area was applied to calculate the concentration of the newly formed 2MeGlu from the total 2MeGlu concentration determined directly using the calibration curve.

GluN2A = target: T2, GluN2A (Homo sapiens, UniProt Q12879); experiment: FLIPR functional assay, HEK 293 cells (agonist/PAM/antagonist); type: cell-based; conditions: top concentration 100 μM, read-out: IC50, functional antagonist receptor assay
T2 construct: host or cells: HEK 293 (stably expressing)
T2 sequence (Q12879 23-1464, other chains not shown): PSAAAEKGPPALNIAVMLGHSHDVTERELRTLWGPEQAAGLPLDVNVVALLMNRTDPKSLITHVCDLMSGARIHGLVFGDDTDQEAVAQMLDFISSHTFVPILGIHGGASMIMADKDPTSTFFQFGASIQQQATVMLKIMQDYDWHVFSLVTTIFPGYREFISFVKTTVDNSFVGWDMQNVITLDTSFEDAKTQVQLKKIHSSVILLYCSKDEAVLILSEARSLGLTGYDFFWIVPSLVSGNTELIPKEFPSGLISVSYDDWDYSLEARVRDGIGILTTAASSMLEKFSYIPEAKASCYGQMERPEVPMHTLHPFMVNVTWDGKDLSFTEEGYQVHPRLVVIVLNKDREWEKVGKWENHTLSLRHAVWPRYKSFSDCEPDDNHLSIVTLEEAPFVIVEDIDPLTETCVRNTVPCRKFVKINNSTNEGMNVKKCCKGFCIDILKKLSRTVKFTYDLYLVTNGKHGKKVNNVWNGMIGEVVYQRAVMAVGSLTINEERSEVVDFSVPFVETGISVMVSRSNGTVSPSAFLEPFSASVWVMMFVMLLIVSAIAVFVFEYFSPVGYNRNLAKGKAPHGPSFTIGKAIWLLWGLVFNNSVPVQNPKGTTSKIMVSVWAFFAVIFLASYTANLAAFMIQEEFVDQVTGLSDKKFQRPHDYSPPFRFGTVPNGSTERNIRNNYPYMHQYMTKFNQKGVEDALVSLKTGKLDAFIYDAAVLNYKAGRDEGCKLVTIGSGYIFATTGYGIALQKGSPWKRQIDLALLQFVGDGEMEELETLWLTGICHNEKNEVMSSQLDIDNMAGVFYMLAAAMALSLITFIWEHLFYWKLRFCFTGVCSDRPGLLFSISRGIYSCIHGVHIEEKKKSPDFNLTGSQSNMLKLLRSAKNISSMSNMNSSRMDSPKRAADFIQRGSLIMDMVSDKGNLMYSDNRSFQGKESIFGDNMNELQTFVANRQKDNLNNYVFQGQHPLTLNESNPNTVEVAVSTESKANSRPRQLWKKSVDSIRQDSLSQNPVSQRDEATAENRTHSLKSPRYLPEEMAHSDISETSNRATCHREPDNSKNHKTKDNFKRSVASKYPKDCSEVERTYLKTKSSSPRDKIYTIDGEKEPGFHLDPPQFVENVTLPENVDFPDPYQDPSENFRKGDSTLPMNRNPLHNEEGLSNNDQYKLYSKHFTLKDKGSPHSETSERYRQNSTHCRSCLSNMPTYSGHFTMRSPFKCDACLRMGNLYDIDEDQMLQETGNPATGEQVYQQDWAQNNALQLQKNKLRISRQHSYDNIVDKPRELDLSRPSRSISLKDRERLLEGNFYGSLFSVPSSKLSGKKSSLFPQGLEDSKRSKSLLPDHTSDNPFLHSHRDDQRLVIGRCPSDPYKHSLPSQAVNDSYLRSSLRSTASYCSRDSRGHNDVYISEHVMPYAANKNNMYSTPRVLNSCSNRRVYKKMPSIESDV
Protocol: Functional assays of all GABAA, NMDA (GluN2A-GluN2D) and AMPA (GluA2) receptor subunits were performed by SB Drug Discovery as a part of their CNS discovery panel using FLIPR technology. Briefly, receptor-expressing HEK 293 cell lines were incubated in a red membrane potential dye in HEPES:HBSS pH 7.4 buffer and the fluorescence (λex: 488, λex: 510-570) was monitored over time as the test compounds and/or reference compounds were added to the solution. In agonist assay, only test compounds were added. In positive allosteric modulator assay, cells were preincubated with test compounds and then low concentration (approximately EC20) of an appropriate agonist was added. In antagonist assay, cells were preincubated with test compounds and then high concentration (approximately EC80) of an appropriate agonist was added. For GABAA assays, GABA was used as the agonist, picrotoxin was used as the reference antagonist and allopregnanolone was used as the reference positive allosteric modulator (PAM). For NMDA assays, a mixture of glutamate, glycine and CaCl2 was used as the agonist, MK801 was the reference antagonist and pregnenolone sulfate or GNE 9278 were used as reference PAMs. For AMPA assays, glutamate was used as the agonist, CNQX was the reference antagonist and cyclothiazide was used as the reference PAM. All compounds were tested at 7 concentration points in triplicate and EC50/IC50 was determined where applicable. Functional GABAB assay was performed by Eurofins Discovery (Cerep) using Ca^2+-dependent fluorimetry in RBL cells expressing human GABAB (B1/B2) receptor. All compounds were tested at a single concentration of 100 uM in triplicate.
All receptor assays were performed exactly as described in Example 1. Functional assays of all GABAA, NMDA (GluN2A-GluN2D) and AMPA (GluA2) receptor subunits were performed by SB Drug Discovery as a part of their CNS discovery panel using FLIPR technology. All compounds were tested at 7 concentrations in triplicate and EC50/IC50 was determined where applicable. Functional GABAB assay was performed by Eurofins Discovery (Cerep) using Ca^2+-dependent fluorimetry in RBL cells expressing human GABAB (B1/B2) receptor. All compounds were tested at a single concentration of 100 uM in triplicate. Nonspecific AMPA, kainate and NMDA binding assays were performed by Eurofins Discovery (Cerep) using rat cerebral cortex membranes and radiolabeled [^3H]AMPA, [^3H]kainic acid and [^3H]CGP 39653, respectively. All compounds were tested at a single concentration of 100 uM in triplicate. mGluR1, mGluR2, mGluR5 and GABAB binding assays were performed by Eurofins Discovery. All compounds were tested at a single concentration of 100 uM in triplicate.

Line 61 mice = experiment: Transgenic α-synuclein mouse model, tapered beam test; type: in vivo
From the text: Line 61 mice overexpress human α-synuclein under control of the mouse Thy-1 promoter. The transgene is X-linked so females have variable transgene expression; for this reason, we focused on male mice. […] Categorical data from the tapered beam task were unblinded and analyzed by X square test (P<0.005).

Line 41 mice = experiment: Transgenic Aβ model of AD, behavior tests; type: in vivo; conditions: 10 mg/kg/d IP for 6 weeks
Protocol: Cerebral Aβ accumulation is a core feature of AD. Since memantine, a glutamate receptor subtype antagonist is an approved treatment for people with AD, we tested whether our false glutamatergic neurotransmitter might be therapeutic in a transgenic model of AD. Four month old Line 41 male mice were treated with S-2MeGlu at 10 mg/kg/d IP for 6 weeks with behavior tested using activity chamber, Y maze, novel object and novel place recognition, Morris water maze, and fear conditioning.

**Q.** Which results are given for CC(N)(CCC(N)=O)C(=O)O (racemic) [rac-2MeGln, rac-2-methylglutamine]?
**A.** apparent GLS1 reaction rate, lower compared to that of Gln (human glutaminase GLS1): approximately 35 fold; apparent reaction rate of GLS1 hydrolysis (human glutaminase GLS1; 5 ng/mL enzyme, phosphate pH 7.4): 1.9 µM/min

**Q.** For C[C@@](N)(CCC(=O)O)C(=O)O [(R)-2MeGlu, (R)-2-methylglutamic acid], which IC50 (GluN2A) is on record?
**A.** The IC50 was 69 µM.

**Q.** Which results are given for C[C@](N)(CCC(=O)O)C(=O)O [(S)-2MeGlu, (S)-2-methylglutamic acid]?
**A.** body weight or deaths (Line 61 mice; 5 or 50 mg/kg/d IP, seven days): no change in body weight or deaths; motor function, tapered beam (Line 61 mice; 7 days IP, high dose (50 mg/kg/d) S-2MeGlu, either dose (5 or 50 mg/kg/d) R-4APA): improved motor function similar to WT mice; α-synuclein accumulation in brain by immunohistochemistry vs vehicle (Line 61 mice; Line 61 mice): no significant change; Aβ accumulation by immunohistochemistry (Line 41 mice): no change in Aβ accumulation; behavior tests (activity chamber, Y maze, novel object and place recognition, Morris water maze, fear conditioning) (Line 41 mice): only rescued performance in the Y maze; body weights or deaths (Line 41 mice): no difference in body weights or any deaths
